How the values were obtained:
Assay in all cases: relative viability (nuclei count vs DMSO), 5 days (fraction); higher = more cells survive
Decitabine + Crizotinib = compound: Nc1ncn([C@H]2C[C@H](O)[C@@H](CO)O2)c(=O)n1 [Decitabine] + C[C@@H](Oc1cc(-c2cnn(C3CCNCC3)c2)cnc1N)c1c(Cl)ccc(F)c1Cl [Crizotinib] (partner 1 µM)
Procedure, shortened: (§1)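 Relative viability divides the nuclei count in treated wells by that in vehicle wells. Lung cancer cell lines were seeded in 1536-well plates, dosed by pin tool the next day, and fixed and stained after 5 days in one step with final 0.05% Triton X-100, 1% formaldehyde and 1 ug/ml Hoechst. Dosing was a single drug or a fixed anchor-drug dose plus five library-drug doses (not always all listed) in √10 steps, and values are medians of duplicate plates imaged at 4×.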

Decitabine + Tozasertib = compound: Nc1ncn([C@H]2C[C@H](O)[C@@H](CO)O2)c(=O)n1 [Decitabine] + Cc1cc(Nc2cc(N3CCN(C)CC3)nc(Sc3ccc(NC(=O)C4CC4)cc3)n2)n[nH]1 [Tozasertib] (partner 0.1 µM)
Procedure, shortened: as §1

[1] = compound: O=C(C[C@H]1NCCC[C@@H]1O)Cn1cnc2cc(Br)c(Cl)cc2c1=O (racemic) [Halofuginone] + CC1(C)CCC(c2ccc(Cl)cc2)=C(CN2CCN(c3ccc(C(=O)NS(=O)(=O)c4ccc(N[C@H](CCN5CCOCC5)CSc5ccccc5)c(S(=O)(=O)C(F)(F)F)c4)cc3)CC2)C1 [Navitoclax] (partner 0.5 µM)
Procedure, shortened: as §1

[2] = compound: O=C(C[C@H]1NCCC[C@@H]1O)Cn1cnc2cc(Br)c(Cl)cc2c1=O (racemic) [Halofuginone] + O=C(CCCCCCC(=O)Nc1ccccc1)NO [Vorinostat] (partner 1 µM)
Procedure, shortened: as §1

Cell Line	relative viability (Decitabine + Crizotinib; first compound 0.04 µM)	relative viability (Decitabine + Crizotinib; first compound 0.1265 µM)	relative viability (Decitabine + Crizotinib; first compound 0.4 µM)	relative viability (Decitabine + Crizotinib; first compound 1.265 µM)	relative viability (Decitabine + Crizotinib; first compound 4 µM)	relative viability (Decitabine + Tozasertib; first compound 0.04 µM)	relative viability (Decitabine + Tozasertib; first compound 0.1265 µM)	relative viability (Decitabine + Tozasertib; first compound 0.4 µM)	relative viability (Decitabine + Tozasertib; first compound 1.265 µM)	relative viability (Decitabine + Tozasertib; first compound 4 µM)	relative viability ([1]; first compound 0.001 µM)	relative viability ([1]; first compound 0.003162 µM)	relative viability ([1]; first compound 0.01 µM)	relative viability ([1]; first compound 0.03162 µM)	relative viability ([1]; first compound 0.1 µM)	relative viability ([2]; first compound 0.001 µM)	relative viability ([2]; first compound 0.003162 µM)	relative viability ([2]; first compound 0.01 µM)	relative viability ([2]; first compound 0.03162 µM)	relative viability ([2]; first compound 0.1 µM)
HCC-78	0.354	0.382	0.395	0.272	0.255	0.443	0.488	0.369	0.38	0.291	0.75	0.758	0.725	0.817	0.435	0.675	0.459	0.391	0.426	0.367
PC-14		0.57	0.258	0.27	0.225	0.25	0.182	0.0787	0.0922	0.0951	1.07	0.941	0.963	0.572	0.154	0.803	0.626	0.646	0.292	0.0442
NCI-H2087	0.515	0.568	0.563	0.347	0.292	0.229	0.194	0.176	0.129	0.153	1.01	1.09	0.94	0.799	0.682	0.72	0.713	0.773	0.723	0.484
HOP-62	0.421	0.318	0.149	0.117	0.133	0.226	0.229	0.141	0.108	0.104	1.14	0.785	0.933	1.04	0.873	0.675	0.597	0.603	0.566	0.279
EKVX	0.828	0.73	0.503	0.396	0.364	0.283	0.266	0.247	0.166	0.148	1.06	0.971	0.984	0.905	0.797	0.787	0.729	0.729	0.693	0.572
EMC-BAC-2	0.64	0.656	0.454	0.483	0.402	0.274	0.266	0.27	0.251	0.271	1.14	1.29	1.14	1.13	0.87	0.592	0.491	0.447	0.334	0.14
HARA	0.774	0.745	0.63	0.379	0.352	0.0975	0.0855	0.0556	0.078	0.0747	1.14	1.11	1.14	1.12	1.14	0.587	0.675	0.512	0.697	0.51
LU99A	0.517	0.491	0.631	0.439	0.317	0.32	0.255	0.291	0.252	0.219	0.794	0.73	0.763	0.706	0.665	0.482	0.578	0.51	0.479	0.453

From the supplement of paper PMC10307832
